Reference: publication PMC4107925, “Diverse modes of binding in structures of Leishmania major N-myristoyltransferase with selective inhibitors” (IUCrJ, 2014)
“And” between values parts separate entries of the source, which are not always exact repeats. Equal values may be shown once.

What was measured:
[1] = biological target: T1, LdNMT (Leishmania donovani, UniProt D0AB09); test: NMT enzyme inhibition assay (non-radioactive), L. donovani NMT; format: biochemical; conditions: for LE (ligand efficiency): LE = 1.4(-logLdNMT IC50)/N, N = number of non-H atoms; for IC50: read-out: IC50 LdNMT
T1 sequence (D0AB09 1-421): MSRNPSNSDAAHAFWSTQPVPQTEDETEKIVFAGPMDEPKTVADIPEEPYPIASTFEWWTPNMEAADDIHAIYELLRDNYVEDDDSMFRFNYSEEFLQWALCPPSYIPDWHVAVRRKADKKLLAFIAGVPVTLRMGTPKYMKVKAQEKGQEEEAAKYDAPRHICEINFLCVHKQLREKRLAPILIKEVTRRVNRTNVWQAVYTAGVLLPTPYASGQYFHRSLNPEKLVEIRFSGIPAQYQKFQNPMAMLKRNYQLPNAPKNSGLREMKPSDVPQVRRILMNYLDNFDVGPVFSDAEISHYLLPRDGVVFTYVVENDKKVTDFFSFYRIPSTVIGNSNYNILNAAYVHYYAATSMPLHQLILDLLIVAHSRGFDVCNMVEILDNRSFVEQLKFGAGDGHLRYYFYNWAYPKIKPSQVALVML

[2] = biological target: LmNMT (Leishmania major, UniProt Q4Q5S8); test: biochemical; conditions: read-out: IC50 LmNMT
Sequence of LmNMT (Q4Q5S8 5-421 limits assumed): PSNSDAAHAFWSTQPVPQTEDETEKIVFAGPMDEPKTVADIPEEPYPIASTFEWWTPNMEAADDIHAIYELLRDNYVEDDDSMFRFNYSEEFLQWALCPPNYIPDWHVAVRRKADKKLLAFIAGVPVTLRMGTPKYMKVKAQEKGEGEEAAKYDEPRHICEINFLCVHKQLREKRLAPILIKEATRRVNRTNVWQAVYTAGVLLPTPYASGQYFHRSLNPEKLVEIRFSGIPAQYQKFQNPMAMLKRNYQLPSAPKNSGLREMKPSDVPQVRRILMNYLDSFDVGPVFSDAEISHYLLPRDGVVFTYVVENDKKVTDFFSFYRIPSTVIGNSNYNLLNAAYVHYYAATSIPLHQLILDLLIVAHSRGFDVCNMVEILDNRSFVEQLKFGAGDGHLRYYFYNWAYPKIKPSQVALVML

[3] = biological target: T2, HsNMT1 (Homo sapiens, UniProt P30419); test: NMT enzyme inhibition assay (non-radioactive), human NMT; format: biochemical; conditions: for IC50: human NMT isoform 1 (HsNMT1), read-out: IC50 HsNMT; for selectivity factor: LdNMT IC50 versus human enzyme IC50
T2 sequence (P30419 1-496): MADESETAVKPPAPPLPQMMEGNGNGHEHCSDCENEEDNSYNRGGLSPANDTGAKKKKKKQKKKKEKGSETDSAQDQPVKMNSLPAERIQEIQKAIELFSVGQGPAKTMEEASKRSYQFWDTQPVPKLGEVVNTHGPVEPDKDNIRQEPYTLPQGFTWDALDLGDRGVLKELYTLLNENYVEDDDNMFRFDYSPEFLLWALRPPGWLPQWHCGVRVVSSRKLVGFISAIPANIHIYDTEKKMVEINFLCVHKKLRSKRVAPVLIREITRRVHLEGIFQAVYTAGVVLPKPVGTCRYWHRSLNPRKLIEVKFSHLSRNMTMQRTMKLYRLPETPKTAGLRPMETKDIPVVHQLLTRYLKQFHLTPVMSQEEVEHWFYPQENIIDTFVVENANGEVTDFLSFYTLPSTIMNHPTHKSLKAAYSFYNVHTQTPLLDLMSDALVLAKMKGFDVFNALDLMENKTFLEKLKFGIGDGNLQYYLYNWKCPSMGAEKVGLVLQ

CN1CCC(N(C)c2nc(N(C)CCC#N)c3sccc3n2)CC1 [6KV]
LE (ligand efficiency) [1]: 0.34 | IC50 [1]: 250 nM and 247 nM | IC50 [2]: 299 ± 89 nM | selectivity against HsNMT1 ([3]; LdNMT over HsNMT1): approximately tenfold | IC50 [3]: 3560 ± 490 nM

N[C@@H](CC(=O)N1C[C@H](CO)[C@@H](c2ccc(Cl)cc2)C1)Cc1ccc(Cl)cc1 [A6K]
LE (ligand efficiency) [1]: 0.35 | IC50 [1]: 77 ± 7 nM | IC50 [2]: 31 ± 4 nM | selectivity factor [3]: ~80 | IC50 [3]: 5000 nM and 5160 nM

c1cncc(CCNCc2cccc(-c3cccc(CN4CCc5ncsc5C4)c3)c2)c1 [CWZ]
LE (ligand efficiency) [1]: 0.29 | IC50 [1]: 900 nM and 914 nM | IC50 [2]: 1020 ± 100 nM | selectivity factor [3]: 50 | IC50 [3]: 45000 nM and 45500 nM
